{
  "source": "patent US4929601A",
  "about": "“Tripeptides useful as immunostimulants as well as in the prevention of metastases” (Ellem Industria Farmaceutica, S.p.A., priority 1987, dated 1990)",
  "key": {"[1]": {"tested_on": "pure human T lymphocytes, without macrophages", "assay": "Lymphokine production by pure human T lymphocytes without macrophages (+IL-1): TCGF activity", "type": "cell-based", "description": "The supernatants have been collected, filtered (0.2 μm) and assayed for the presence of IL-2 or BCGF activity, by adding them at different concentrations to fresh T lymphocytes or to long term cultured B cells. The proliferating activity of these cells, dependent on the presence of the respective growth factor, has been evaluated through 3H-thymidine incorporation.\nThe lymphokine production by human T lymphocytes purified through […] on nylon wool column has been evaluated with the same methods as in the previous experiment.\nIn order to obviate the lack of macrophages, recombinant IL-1 β (Genzyme) has been added at the concentration of 25 Units/ml."}, "[2]": {"tested_on": "PHA-stimulated human T lymphocytes", "assay": "DNA synthesis in PHA-stimulated human T lymphocytes in vitro (3H-thymidine)", "type": "cell-based", "conditions": "for DNA synthesis, 3H-thymidine c.p.m. (mean): control 22642", "description": "Human T lymphocytes, incubated in vitro for 72 hours in presence of 0.5% PHA and different concentrations of the tripeptides under examination, have been analyzed for DNA synthesis (cell proliferation) by means of 3H-thymidine labelling."}, "[3]": {"tested_on": "spleen cells of normal mice", "assay": "Induction of Thy 1.2 antigen in spleen cells of normal mice", "type": "cell-based", "description": "The capacity of the tripeptide Arg-Gly-Asp to induce in vitro the differentiation of T cell precursors into lymphocytes expressing T cell markers has been tested by evidencing the induction of Thy 1.2 membrane antigen.\nSpleen cells of normal mice have been used as source of \"null\" cells.\nMice were killed by cervical dislocation.\nSpleens were aseptically removed and finely minced with forceps in Hank's balanced salt solution (HBSS) (Gibco Ltd, Paisley, Scotland). A suspension of single cells was obtained through filtration on a fine mesh wire sieve. Mononuclear cells (MNC) have been isolated through differential centrifugation on Lymphoprep (Nyegaard, Oslo, Norway) with continuous density gradient for 20 minutes at 450 g.\nAfter 3 washes in HBSS, MNC were suspended at a concentration of 5×10^6 cells/ml in 199 medium (Gibco Ltd) supplemented with 1% BSA (Cohn Fr. V. Sigma, St. Louis), L-glutamine 2 mM and 10 mcg/ml of gentamycin sulfate (Schering, Klworth, N.J., U.S.A.) (TC 199-BSA). The cells have been used when their viability was over 95% at the Trypan Blue exclusion test.\nTwo hundred μl of the spleen MNC suspension have been mixed with the same volume of the tripeptide opportunely diluted with TC 199-BSA medium. The control cells have only been treated with the medium TC 199-BSA. […] containing 5% CO2, then washed twice with HBSS containing 5% heat-inactivated neonatal calf serum (Gibco) (HBSSS-CS) and finally resuspended in the same medium at a concentration of 10^6 cells/ml.\nThe expression of Thy 1.2 antigen was analyzed by IF using and anti-Thy 1.2 monoclonal antibody conjugated with fluorescein (Bio-Yeda, supplied by Technogenetics, S. Mauro Torinese, Italy) at the concentration of 2 mcg/10^6 cells. The cells have been incubated with the antibody for 30 minutes at 4° C.\nAfter three washes in HBSS, the cells have been resuspended in the same medium and observed with a Leitz Orthomat microscope equipped with epiillumination.\nAt least 300 cells have been counted in each evaluation."}, "[4]": {"assay": "Toxicological trials: LD50 in mice", "conditions": "mouse, in vivo, ip; i.p. in mice"}},
  "data": [
    {"compound": "N=C(N)NCCC[C@H](N)C(=O)NCC(=O)N[C@@H](CC(=O)O)C(=O)O", "note": "[ARG--GLY--ASP, L-Arginyl-glycyl-L-aspartic acid]", "values": [
      {"measurement": "TCGF ACTIVITY c.p.m.", "setting": "[1]; 1 mcg/ml, 6.25% of supernatant, T + PHA + IL-1 2817", "result": 6893, "unit": "c.p.m."},
      {"measurement": "TCGF activity Δ %", "setting": "[1]; 1 mcg/ml, 12.5% of supernatant", "result": "+259%"},
      {"measurement": "TCGF ACTIVITY c.p.m.", "setting": "[1]; 1 mcg/ml, 12.5% of supernatant, T + PHA + IL-1 3663", "result": 13147, "unit": "c.p.m."},
      {"measurement": "TCGF activity Δ %", "setting": "[1]; 1 mcg/ml, 25% of supernatant", "result": "+209%"},
      {"measurement": "TCGF ACTIVITY c.p.m.", "setting": "[1]; 1 mcg/ml, 25% of supernatant, T + PHA + IL-1 4812", "result": 14862, "unit": "c.p.m."},
      {"measurement": "TCGF activity Δ %", "setting": "[1]; 1 mcg/ml, 50% of supernatant", "result": "+149%"},
      {"measurement": "TCGF ACTIVITY c.p.m.", "setting": "[1]; 1 mcg/ml, 50% of supernatant, T + PHA + IL-1 6297", "result": 15654, "unit": "c.p.m."},
      {"measurement": "TCGF activity Δ %", "setting": "[1]; 10 mcg/ml, 3.125% of supernatant", "result": "+2%"},
      {"measurement": "TCGF ACTIVITY c.p.m.", "setting": "[1]; 10 mcg/ml, 3.125% of supernatant, T + PHA + IL-1 1696", "result": 1736, "unit": "c.p.m."},
      {"measurement": "TCGF activity Δ %", "setting": "[1]; 10 mcg/ml, 6.25% of supernatant", "result": "+125%"},
      {"measurement": "TCGF ACTIVITY c.p.m.", "setting": "[1]; 10 mcg/ml, 6.25% of supernatant, T + PHA + IL-1 2817", "result": 6342, "unit": "c.p.m."},
      {"measurement": "TCGF activity Δ %", "setting": "[1]; 10 mcg/ml, 12.5% of supernatant", "result": "+279%"},
      {"measurement": "TCGF ACTIVITY c.p.m.", "setting": "[1]; 10 mcg/ml, 12.5% of supernatant, T + PHA + IL-1 3663", "result": 13874, "unit": "c.p.m."},
      {"measurement": "TCGF activity Δ %", "setting": "[1]; 10 mcg/ml, 25% of supernatant", "result": "+128%"},
      {"measurement": "TCGF ACTIVITY c.p.m.", "setting": "[1]; 10 mcg/ml, 25% of supernatant, T + PHA + IL-1 4812", "result": 10968, "unit": "c.p.m."},
      {"measurement": "TCGF activity Δ %", "setting": "[1]; 10 mcg/ml, 50% of supernatant", "result": "+113%"},
      {"measurement": "TCGF ACTIVITY c.p.m.", "setting": "[1]; 10 mcg/ml, 50% of supernatant, T + PHA + IL-1 6297", "result": 13427, "unit": "c.p.m."},
      {"measurement": "PHA-induced human T lymphocyte proliferation (DNA synthesis)", "setting": "[2]; 72 hours, 0.5% PHA", "result": "able to increase"},
      {"measurement": "DNA synthesis Δ %", "setting": "[2]; peptide 0.0001 mcg/ml", "result": -3, "unit": "%"},
      {"measurement": "DNA synthesis, 3H-thymidine c.p.m. (mean)", "setting": "[2]; peptide 0.0001 mcg/ml, 72 hours, 0.5% PHA", "result": 22002, "unit": "c.p.m."},
      {"measurement": "DNA synthesis Δ %", "setting": "[2]; peptide 0.001 mcg/ml", "result": "+4%"},
      {"measurement": "DNA synthesis, 3H-thymidine c.p.m. (mean)", "setting": "[2]; peptide 0.001 mcg/ml, 72 hours, 0.5% PHA", "result": 23519, "unit": "c.p.m."},
      {"measurement": "DNA synthesis Δ %", "setting": "[2]; peptide 0.01 mcg/ml", "result": "+6%"},
      {"measurement": "DNA synthesis, 3H-thymidine c.p.m. (mean)", "setting": "[2]; peptide 0.01 mcg/ml, 72 hours, 0.5% PHA", "result": 24034, "unit": "c.p.m."},
      {"measurement": "DNA synthesis Δ %", "setting": "[2]; peptide 0.1 mcg/ml", "result": "+17%"},
      {"measurement": "DNA synthesis, 3H-thymidine c.p.m. (mean)", "setting": "[2]; peptide 0.1 mcg/ml, 72 hours, 0.5% PHA", "result": 25814, "unit": "c.p.m."},
      {"measurement": "DNA synthesis Δ %", "setting": "[2]; peptide 1 mcg/ml", "result": "+11%"},
      {"measurement": "DNA synthesis, 3H-thymidine c.p.m. (mean)", "setting": "[2]; peptide 1 mcg/ml, 72 hours, 0.5% PHA", "result": 25163, "unit": "c.p.m."},
      {"measurement": "DNA synthesis Δ %", "setting": "[2]; peptide 10 mcg/ml", "result": "+6%"},
      {"measurement": "DNA synthesis, 3H-thymidine c.p.m. (mean)", "setting": "[2]; peptide 10 mcg/ml, 72 hours, 0.5% PHA", "result": 24111, "unit": "c.p.m."},
      {"measurement": "VARIATION of % THY 1.2 + cells", "setting": "[3]; 0.1 μg/ml, 3 hours of incubation", "result": "+3.3"},
      {"measurement": "% THY 1.2 + CELLS", "setting": "[3]; 0.1 μg/ml, 3 hours of incubation, control 22.0", "result": 25.3, "unit": "%"},
      {"measurement": "VARIATION of % THY 1.2 + cells", "setting": "[3]; 1 μg/ml, 3 hours of incubation", "result": "+5.1"},
      {"measurement": "% THY 1.2 + CELLS", "setting": "[3]; 1 μg/ml, 3 hours of incubation, control 22.0", "result": 27.1, "unit": "%"},
      {"measurement": "VARIATION of % THY 1.2 + cells", "setting": "[3]; 10 μg/ml, 3 hours of incubation", "result": "+9.4"},
      {"measurement": "% THY 1.2 + CELLS", "setting": "[3]; 10 μg/ml, 3 hours of incubation, control 22.0", "result": 31.4, "unit": "%"},
      {"measurement": "VARIATION of % THY 1.2 + cells", "setting": "[3]; 10 μg/ml, 18 hours of incubation", "result": "+9.5"},
      {"measurement": "% THY 1.2 + CELLS", "setting": "[3]; 10 μg/ml, 18 hours of incubation, control 17.0", "result": 26.5, "unit": "%"},
      {"measurement": "VARIATION of % THY 1.2 + cells", "setting": "[3]; 100 μg/ml, 3 hours of incubation", "result": "+7.4"},
      {"measurement": "% THY 1.2 + CELLS", "setting": "[3]; 100 μg/ml, 3 hours of incubation, control 22.0", "result": 29.4, "unit": "%"},
      {"measurement": "VARIATION of % THY 1.2 + cells", "setting": "[3]; 100 μg/ml, 18 hours of incubation", "result": "+4.7"},
      {"measurement": "% THY 1.2 + CELLS", "setting": "[3]; 100 μg/ml, 18 hours of incubation, control 17.0", "result": 21.7, "unit": "%"},
      {"measurement": "VARIATION of % THY 1.2 + cells", "setting": "[3]; 200 μg/ml, 3 hours of incubation", "result": "+5.9"},
      {"measurement": "% THY 1.2 + CELLS", "setting": "[3]; 200 μg/ml, 3 hours of incubation, control 22.0", "result": 27.9, "unit": "%"},
      {"measurement": "optimum concentration for Thy 1.2 induction", "setting": "[3]; in vitro", "result": 10, "unit": "µg/mL"},
      {"measurement": "LD50", "setting": "[4]", "result": "> 1000", "unit": "mg/kg"}
    ]}
  ]
}
